Results from PubChem BioAssay AID180 (DTP/NCI, 2004).
Where “and” joins values, the source holds several entries; their conditions need not be identical. Identical values can stand only once.

System: BDF1 mice, Adenocarcinoma 755 s.c., tumor weight T/C
Test: NCI In Vivo Anticancer Drug Screen. Data for tumor model Adenocarcinoma 755 (subcutaneous) in B6D2F1 (BDF1) mice
Conditions: endpoint: mean tumor weight, schedule: Q01DX011 (ip), higher = larger tumour
Method in brief: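 Compound activity was tested in mice carrying transplanted tumors. Survival or tumor size was measured, and each value is the treated-group measurement divided by that of the vehicle-treated control group (T/C).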

[1] = dose: 125.0 mg/kg/injection, vehicle: methylcellulose (MC)
[2] = dose: 25.0 mg/kg/injection, vehicle: carboxymethylcellulose (CMC)

With `c1ccc2[nH]cnc2c1` the T/C (dose: 38.5 mg/kg/injection, vehicle: carboxymethylcellulose (CMC)) was 74 % of control, the T/C (dose: 40.0 mg/kg/injection, vehicle: carboxymethylcellulose (CMC)) was 93 % of control and the T/C (dose: 43.5 mg/kg/injection, vehicle: carboxymethylcellulose (CMC)) was 116 % of control. The T/C (dose: 62.5 mg/kg/injection, vehicle: methylcellulose (MC)) was 60 % of control, the T/C (dose: 77.0 mg/kg/injection, vehicle: carboxymethylcellulose (CMC)) was 62 % of control and the T/C (dose: 80.0 mg/kg/injection, vehicle: carboxymethylcellulose (CMC)) was 72 % of control. For the same molecule, the T/C (dose: 87.0 mg/kg/injection, vehicle: carboxymethylcellulose (CMC)) was 110 % of control, the T/C (dose: 123.2 mg/kg/injection, vehicle: carboxymethylcellulose (CMC)) was 41 % of control and 57 % of control and the T/C [1] was 88 % of control. The T/C (dose: 160.0 mg/kg/injection, vehicle: carboxymethylcellulose (CMC)) was 105 % of control, the T/C (dose: 174.0 mg/kg/injection, vehicle: carboxymethylcellulose (CMC)) was 101 % of control and the T/C (dose: 205.33 mg/kg/injection, vehicle: carboxymethylcellulose (CMC)) was 77 % of control and 82 % of control. For the same molecule, the T/C (dose: 250.0 mg/kg/injection, vehicle: methylcellulose (MC)) was 118 % of control, the T/C (dose: 320.0 mg/kg/injection, vehicle: carboxymethylcellulose (CMC)) was 123 % of control and the T/C (dose: 348.0 mg/kg/injection, vehicle: carboxymethylcellulose (CMC)) was 76 % of control.

In the case of `CNC(=O)C(C)C`, the T/C (dose: 31.2 mg/kg/injection, vehicle: other) is reported as 44 % of control, the T/C (dose: 62.5 mg/kg/injection, vehicle: other) is reported as 90 % of control and the T/C (dose: 125.0 mg/kg/injection, vehicle: other) is reported as 90 % of control. The T/C (dose: 250.0 mg/kg/injection, vehicle: other) was 77 % of control.

For `CCn1cnc2c(SC3CCCC3)ncnc21`, the T/C (dose: 5.0 mg/kg/injection, vehicle: carboxymethylcellulose (CMC)) was 16 % of control, the T/C (dose: 7.5 mg/kg/injection, vehicle: carboxymethylcellulose (CMC)) was 4 % of control and the T/C (dose: 10.0 mg/kg/injection, vehicle: carboxymethylcellulose (CMC)) was 3 % of control. For the same molecule, the T/C [2] was 14 % of control.

For `O=P(N1CCCCC1)(N1CC1)N1CC1`, the T/C (dose: 1.8 mg/kg/injection, vehicle: carboxymethylcellulose (CMC)) was 68 % of control, the T/C (dose: 1.8 mg/kg/injection, vehicle: saline) was 44 % of control and the T/C (dose: 3.5 mg/kg/injection, vehicle: carboxymethylcellulose (CMC)) was 92 % of control. The T/C (dose: 3.5 mg/kg/injection, vehicle: saline) was 38 % of control, the T/C (dose: 7.0 mg/kg/injection, vehicle: saline) was 15 % of control and the T/C (dose: 14.0 mg/kg/injection, vehicle: carboxymethylcellulose (CMC)) was 45 % of control.

With `CCC(=O)OCC1OC(n2cnc3c(=S)nc(N)[nH]c32)C(OC(=O)CC)C1OC(=O)CC` (stereo unspecified) the T/C (dose: 1.5 mg/kg/injection, vehicle: carboxymethylcellulose (CMC)) was 96 % of control, the T/C (dose: 3.0 mg/kg/injection, vehicle: carboxymethylcellulose (CMC)) was 17 % of control and the T/C (dose: 6.0 mg/kg/injection, vehicle: carboxymethylcellulose (CMC)) was 3 % of control. The T/C (dose: 12.0 mg/kg/injection, vehicle: carboxymethylcellulose (CMC)) was 1 % of control.

With `O=P(OCC1OC(n2cnc3c(=S)nc[nH]c32)C(O)C1O)(Oc1ccccc1)Oc1ccccc1` (stereo unspecified) the T/C (dose: 4.0 mg/kg/injection, vehicle: methylcellulose (MC)) was 89 % of control, the T/C (dose: 8.0 mg/kg/injection, vehicle: methylcellulose (MC)) was 88 % of control and the T/C (dose: 16.0 mg/kg/injection, vehicle: methylcellulose (MC)) was 41 % of control. For the same molecule, the T/C (dose: 31.0 mg/kg/injection, vehicle: methylcellulose (MC)) was 39 % of control, the T/C (dose: 62.0 mg/kg/injection, vehicle: methylcellulose (MC)) was 36 % of control and the T/C [1] was 34 % of control.

`Nc1nc(=S)c2ncn(C3OC(COC(=O)c4ccc([N+](=O)[O-])cc4)C(OC(=O)c4ccc([N+](=O)[O-])cc4)C3OC(=O)c3ccc([N+](=O)[O-])cc3)c2[nH]1` (stereo unspecified) was tested, and the T/C (dose: 12.5 mg/kg/injection, vehicle: carboxymethylcellulose (CMC)) was 34 % of control and the T/C [2] was 20 % of control.
